The source of these data is PubChem BioAssay (NCI).

Structures are written as SMILES.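 Method: 48-hour compound exposure of cells in 96-well plates, five concentrations, linear interpolation of endpoints. TGI is the concentration that stops growth completely.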

Test systems include HS 578T breast; MDA-MB-435; OVCAR-3 ovarian; HT29 colon; SNB-75 CNS; ACHN renal; SK-MEL-5 melanoma; UO-31 renal; LOX IMVI melanoma; U251 CNS; CAKI-1 renal; HCC-2998 colon; HL-60(TB) leukemia; SF-295 CNS; SNB-19 CNS; SK-MEL-2 melanoma; NCI-H23 lung.
Holding throughout (experiment): growth of human tumour cells (NCI), 48 h

As to `CC1=NN(C(=O)CC(=O)Nc2ccccc2Cl)C(=O)C1N=Nc1ccc(S(=O)(=O)c2ccc(N=NC3C(=O)N(C(=O)CC(=O)Nc4ccccc4Cl)N=C3C)cc2)cc1` (stereo unspecified), the TGI with HS 578T breast, in the assay on MDA-MB-435, with OVCAR-3 ovarian, in the assay with HT29 colon, in the assay on SNB-75 CNS and with ACHN renal was more than 100 µM each time. The TGI in the assay with SK-MEL-5 melanoma, with UO-31 renal, with LOX IMVI melanoma, in the assay with U251 CNS, with CAKI-1 renal and in the assay on HCC-2998 colon was more than 100 µM throughout. Besides, the TGI in the assay with HL-60(TB) leukemia, in the assay with SF-295 CNS, in the assay on SNB-19 CNS, in the assay on SK-MEL-2 melanoma and in the assay on NCI-H23 lung was more than 100 µM in each case.

`C=CC(OC(C)=O)c1ccc(OC(=O)C(C)C)c(OC)c1` (stereo unspecified): the TGI was more than 80.6 µM in the assay on HS 578T breast; 15.6 µM with MDA-MB-435; 12.4 µM in the assay with OVCAR-3 ovarian; 6.09 µM in the assay on HT29 colon; 13 µM in the assay with SNB-75 CNS; 10.4 µM in the assay on ACHN renal. In addition, the TGI is 30.1 µM in the assay with SK-MEL-5 melanoma; 10.9 µM with UO-31 renal; 5.18 µM with LOX IMVI melanoma; 7.07 µM in the assay on U251 CNS; 3.65 µM in the assay with CAKI-1 renal; 29.5 µM with HCC-2998 colon. The TGI in the assay on HL-60(TB) leukemia is more than 23.6 µM; in the assay on SF-295 CNS it was 24.7 µM; with SNB-19 CNS, 24.6 µM; with SK-MEL-2 melanoma, 15.8 µM; in the assay with NCI-H23 lung, 47.7 µM.

As for `COC(=O)C1=C(OC(=O)/C=C/c2ccccc2)C(C(=O)OC)[C@@]2(O)[C@@H](C(=O)OC)[C@H](C)C[C@@H]1[C@@H]2C(=O)OC` (stereo partly specified), the TGI with HS 578T breast is 50.1 µM; in the assay on MDA-MB-435, more than 100 µM; in the assay on OVCAR-3 ovarian, 54.1 µM; in the assay with HT29 colon, more than 100 µM; with SNB-75 CNS it was 73.1 µM; in the assay on ACHN renal, more than 100 µM. Besides, the TGI is 87.9 µM with SK-MEL-5 melanoma; more than 100 µM in the assay on UO-31 renal; 93.2 µM in the assay with LOX IMVI melanoma; 45.6 µM with U251 CNS; 32.6 µM in the assay with CAKI-1 renal; 48.7 µM in the assay with HCC-2998 colon. The TGI is more than 100 µM in the assay on HL-60(TB) leukemia; 79.9 µM with SF-295 CNS; more than 100 µM in the assay with SNB-19 CNS; 91.1 µM in the assay with SK-MEL-2 melanoma; 48.8 µM in the assay on NCI-H23 lung.

On to `CC(=O)OC(Cc1ccc2ccccc2n1)(C(F)(F)F)C(F)(F)F`, for which the TGI in the assay with HS 578T breast turned out to be 6.58 µM; in the assay on MDA-MB-435, 3.55 µM; in the assay with OVCAR-3 ovarian, 1.99 µM; in the assay with HT29 colon, 5.43 µM; in the assay with SNB-75 CNS, 13.5 µM; with ACHN renal, 14.4 µM. Further, the TGI with SK-MEL-5 melanoma was 1.38 µM; in the assay with UO-31 renal it was 7.12 µM; with LOX IMVI melanoma it was 0.409 µM; in the assay with U251 CNS it was 18.2 µM; with CAKI-1 renal it was 2.96 µM; in the assay with HCC-2998 colon, 7.57 µM. Moreover, the TGI was 0.352 µM in the assay with HL-60(TB) leukemia; 10.9 µM in the assay with SF-295 CNS; 14.7 µM in the assay with SNB-19 CNS; 4.36 µM in the assay with SK-MEL-2 melanoma; 6.95 µM in the assay on NCI-H23 lung.

Consider `C(=N\Nc1ccc(-c2nc3ccccc3[nH]2)cc1)/c1c(-c2ccc(Cc3ccccc3)cc2)[nH]c2ccccc12`, for which the TGI with HS 578T breast was 23 µM; in the assay on MDA-MB-435 it was more than 27.4 µM; with OVCAR-3 ovarian, more than 59.5 µM; with HT29 colon, more than 57.9 µM; in the assay with SNB-75 CNS, 41.2 µM; in the assay with ACHN renal it was more than 79.8 µM. The TGI in the assay with SK-MEL-5 melanoma was more than 52.8 µM; in the assay with UO-31 renal, 49.2 µM; with LOX IMVI melanoma, 23 µM; in the assay with U251 CNS it was more than 51.2 µM; in the assay on CAKI-1 renal, more than 59.8 µM; in the assay with HCC-2998 colon, 30.9 µM. In addition, the TGI is more than 63.5 µM with HL-60(TB) leukemia; 27.9 µM with SF-295 CNS; more than 77.3 µM in the assay with SNB-19 CNS; 20 µM in the assay with SK-MEL-2 melanoma; 59.5 µM in the assay with NCI-H23 lung.

Turning to `CC(=O)OCc1cncn1S(=O)(=O)c1ccc(C)cc1`, the TGI in the assay on HS 578T breast is more than 100 µM; in the assay on MDA-MB-435 it was more than 78.9 µM; in the assay with OVCAR-3 ovarian, more than 100 µM; in the assay with HT29 colon it was more than 100 µM; in the assay with SNB-75 CNS it was more than 100 µM; with ACHN renal it was more than 100 µM. Further, the TGI in the assay with SK-MEL-5 melanoma, with UO-31 renal, with LOX IMVI melanoma, in the assay with U251 CNS, in the assay on CAKI-1 renal and in the assay with HCC-2998 colon was more than 100 µM in each case. Also, the TGI in the assay with HL-60(TB) leukemia is 50.2 µM; in the assay on SF-295 CNS, more than 100 µM; in the assay on SNB-19 CNS, more than 100 µM; with SK-MEL-2 melanoma, more than 100 µM; in the assay with NCI-H23 lung, more than 100 µM.

In the case of `COC1CC(OC2C(C)OC(OC3C(C)OC(OC4C(O)CC(O[C@H]5CC[C@@]6(C)C(=CC[C@]7(O)[C@@H]6C[C@@H](OC(C)=O)[C@@]6(C)[C@]7(O)CC[C@@]6(O)C(C)=O)C5)OC4C)CC3OC)CC2OC)OC(C)C1O` (stereo partly specified), the TGI with HS 578T breast, with MDA-MB-435, in the assay with OVCAR-3 ovarian, in the assay on HT29 colon, in the assay with SNB-75 CNS and with ACHN renal was more than 12.5 µM each time. Besides, the TGI in the assay on SK-MEL-5 melanoma, in the assay on UO-31 renal, in the assay on LOX IMVI melanoma, in the assay with U251 CNS, in the assay on CAKI-1 renal and in the assay with HCC-2998 colon was more than 12.5 µM each time. Moreover, the TGI in the assay with HL-60(TB) leukemia, in the assay with SF-295 CNS, with SNB-19 CNS, in the assay on SK-MEL-2 melanoma and in the assay on NCI-H23 lung was more than 12.5 µM throughout.

Take `CSc1cc(-c2ccccn2)nc(-c2ccccn2)c1`: the TGI in the assay on HS 578T breast came to 48.9 µM; in the assay with MDA-MB-435, 12.9 µM; with OVCAR-3 ovarian, 5 µM; with HT29 colon, 13 µM; with SNB-75 CNS it was 13.6 µM; in the assay with ACHN renal it was 0.977 µM. Further, the TGI stood at 4.07 µM in the assay with SK-MEL-5 melanoma; 1.64 µM with UO-31 renal; 1.52 µM in the assay with LOX IMVI melanoma; 11.7 µM with U251 CNS; 1.81 µM in the assay on CAKI-1 renal; 12.9 µM with HCC-2998 colon. Moreover, the TGI was 0.89 µM in the assay with HL-60(TB) leukemia; 11.5 µM in the assay with SF-295 CNS; more than 50.5 µM in the assay on SNB-19 CNS; 14.9 µM with SK-MEL-2 melanoma; 7.25 µM in the assay with NCI-H23 lung.
